Measurements from ChEMBL document CHEMBL4184140, “Expanding the tetrahydroquinoline pharmacophore” (Bioorg Med Chem Lett, 2017).
Active and inactive are the calls of the source. No cut-off for these calls is given here.

What follows are compounds tested on Mycobacterium tuberculosis variant bovis (assay: Antitubercular activity against Mycobacterium bovis).
Type: functional, organism-based
For `O[C@@H]1[C@@H]2c3ccccc3N[C@H](c3cccc(Br)c3)[C@@H]2C[C@@H]1O`, the Activity was “inactive”. `Brc1cccc([C@H]2Nc3ccccc3[C@H]3C=CC[C@H]32)c1` was tested, and the Activity was “inactive”. `CC(=O)N1c2ccccc2[C@H]2[C@@H](O)[C@H](N=[N+]=[N-])C[C@H]2[C@H]1c1cccc(Br)c1` was tested, and the Activity was “inactive”. In the case of `CC(=O)N1c2ccccc2[C@@H]2[C@@H](C[C@@H]3O[C@H]23)[C@H]1c1cccc(Br)c1`, the Activity is reported as “inactive”. `CC(=O)N1c2ccccc2[C@@H]2[C@@H](C[C@@H]3O[C@H]23)[C@H]1c1ccccc1` was tested, and the Activity was “inactive”. With `Cc1ccccc1[C@H]1Nc2ccccc2[C@H]2[C@@H](O)[C@@H](O)C[C@H]21` the Activity was “inactive”. `CC(=O)N1c2cc([N+](=O)[O-])ccc2[C@H]2[C@@H](O)[C@H](N=[N+]=[N-])C[C@H]2[C@H]1c1ccccc1` was tested, and the Activity was “inactive”. With `C=CCO[C@@H]1[C@@H]2c3ccccc3N(C(C)=O)[C@H](c3cccc(Br)c3)[C@@H]2C[C@H]1N=[N+]=[N-]` the Activity was “inactive”. In the case of `Clc1ccc([C@H]2Nc3ccccc3[C@H]3C=CC[C@H]32)cc1`, the Activity is reported as “inactive”. `O[C@@H]1[C@@H]2c3ccc(F)cc3N[C@H](c3ccccc3)[C@@H]2C[C@@H]1O` was tested, and the Activity was “inactive”. In the case of `Fc1ccc2c(c1)N[C@H](c1ccccc1)[C@@H]1CC=C[C@H]21`, the Activity is reported as “inactive”. `CC(=O)N1c2cc([N+](=O)[O-])ccc2[C@@H]2[C@@H](C[C@@H]3O[C@H]23)[C@H]1c1ccccc1` was tested, and the Activity was “inactive”. `CC(=O)N1c2ccccc2[C@H]2C=CC[C@H]2[C@H]1c1cccc(Br)c1` was tested, and the Activity was “inactive”. With `CC(=O)N1c2cc([N+](=O)[O-])ccc2[C@H]2C=CC[C@H]2[C@H]1c1ccccc1` the Activity was “inactive”. `C=CCO[C@@H]1[C@@H]2c3ccccc3N(C(C)=O)[C@H](c3ccc(Cl)cc3)[C@@H]2C[C@H]1N=[N+]=[N-]` was tested, and the Activity was “inactive”. In the case of `O[C@@H]1[C@@H]2c3ccccc3N[C@H](c3ccccc3)[C@@H]2C[C@@H]1O`, the Activity is reported as “inactive”. With `C1=C[C@@H]2c3ccccc3N[C@H](c3ccccc3)[C@@H]2C1` the Activity was “inactive”. In the case of `O[C@@H]1[C@@H]2c3cc(Br)ccc3N[C@H](c3ccccc3)[C@@H]2C[C@@H]1O`, the Activity is reported as “inactive”. For `C=CCO[C@@H]1[C@@H]2c3ccccc3N(C(C)=O)[C@H](c3ccccc3)[C@@H]2C[C@H]1N=[N+]=[N-]`, the Activity was “inactive”. In the case of `CC(=O)N1c2ccccc2[C@H]2[C@@H](O)[C@H](N=[N+]=[N-])C[C@H]2[C@H]1c1ccccc1`, the Activity is reported as “inactive”. `C=CCO[C@H]1C(n2cc(-c3ccccc3)nn2)C[C@@H]2[C@H]1c1ccccc1N(C(C)=O)[C@@H]2c1ccccc1` (single isomer, unassigned) was tested, and the Activity was “inactive”. `O=[N+]([O-])c1ccc2c(c1)N[C@H](c1ccccc1)[C@@H]1C[C@H](O)[C@H](O)[C@H]21` was tested, and the Activity was “inactive”. `Brc1ccc2c(c1)[C@H]1C=CC[C@H]1[C@@H](c1ccccc1)N2` was tested, and the Activity was “inactive”. For `COC(=O)C[C@@H]1[C@H](C(=O)OC)c2ccccc2N(C(C)=O)[C@@H]1c1ccccc1`, the Activity was “inactive”. With `CC(=O)N1c2ccccc2[C@H]2C=CC[C@H]2[C@H]1c1ccc(Cl)cc1` the Activity was “inactive”. In the case of `CC(=O)N1c2ccc(Br)cc2[C@H]2C=CC[C@H]2[C@H]1c1ccccc1`, the Activity is reported as “inactive”. `CC(=O)N1c2ccccc2[C@H]2[C@@H](O)[C@H](N=[N+]=[N-])C[C@H]2[C@H]1c1ccc(Cl)cc1` was tested, and the Activity was “inactive”. For `Cc1ccccc1[C@H]1Nc2ccccc2[C@H]2C=CC[C@H]21`, the Activity was “inactive”. For `O[C@@H]1[C@@H]2c3ccccc3N[C@H](c3ccc(Cl)cc3)[C@@H]2C[C@@H]1O`, the Activity was “inactive”. For `CC(=O)N1c2ccccc2[C@H]2C=CC[C@H]2[C@H]1c1ccccc1C`, the Activity was “inactive”. With `O=[N+]([O-])c1ccc2c(c1)N[C@H](c1ccccc1)[C@@H]1CC=C[C@H]21` the Activity was “inactive”. For `CC(=O)N1c2ccccc2[C@@H]2[C@@H](C[C@@H]3O[C@H]23)[C@H]1c1ccc(Cl)cc1`, the Activity was “inactive”. `CC(=O)N1c2ccccc2[C@H]2[C@@H](O)[C@@H](O)C[C@H]2[C@H]1c1ccccc1` was tested, and the Activity was “inactive”. In the case of `CC(=O)N1c2ccccc2[C@H]2C=CC[C@H]2[C@H]1c1ccccc1`, the Activity is reported as “inactive”.
